Entries after “also recorded” stand apart in the source; their conditions may differ.
Tests used:
[1] = system: mouse adult neural stem cells derived from the lateral ventricle wall; assay: Intracellular ATP assay on adult mouse neurosphere cultures; format: cell-based; details: for intracellular ATP levels, and hence cell number (adult mouse NSC proliferation or survival in vitro): 3 days, non-adherent conditions, values normalized to the vehicle (100%)
Procedure: The anterior lateral wall of the lateral ventricle of 5-6 week old mice was enzymatically dissociated in 0.8mg/ml hyaluronidase and 0.5 mg/ml trypsin in DMEM containing 4.5 mg/ml glucose and 80units/ml DNase at 37° C. for 20 min. The cells were gently triturated and mixed with three volumes of Neurosphere medium (DMEM/F12, B27 supplement, 12.5 mM HEPES pH7.4) containing 20 ng/ml EGF (unless otherwise stated), 100units/ml penicillin and 100 μg/ml streptomycin. After passing through a 70 μm strainer, the cells were pelleted at 160×g for 5 min. The supernatant was subsequently removed and the cells resuspended in Neurosphere medium supplemented as above, plated out in culture dishes and incubated at 37° C. Neurospheres were ready to be split approximately 7 days after plating.
To split neurosphere cultures, neurospheres were collected by centrifugation at 160×g for 5 min. The neurospheres were resuspended in 0.5 ml Trypsin/EDTA in HBSS (1×), incubated at 37° C. for 2 min and triturated gently to aid dissociation. Following a further 3 min incubation at 37° C. and trituration, 3 volumes of ice cold NSPH-media-EGF were added to stop further trypsin activity. The cells were pelleted at 220×g for 4 min, resuspended in fresh Neurosphere medium supplemented with 20 ng/ml EGF and 1 nM bFGF plated out and incubated at 37° C.
Mouse neurospheres, cultured as described above, from passage 2, were seeded in DMEM/F12 supplemented with B27 into a 96-well plate as single cells (10000 cells/well) to the substances to be measured were added at the concentrations indicated. After 3 days incubation, intracellular ATP was measured using the ATP-SL kit from BioThema, Sweden, according to the manufacturer's instructions. The LXR agonists: 5-Cholesten-24(s), 25-epoxy-3b-ol were purchased from Steraloids (no C6640-000): TO-901317 were purchased from Sigma-Aldrich (no T2320). The RXR agonist cis-4,7,10,13,16,19-Docosahexaenoic acid (DHA) were purchased from Sigma-Aldrich (no 43938). […]

cells in the LVW [2] = assay: Oral administration of TO-901317 in chow, BrdU incorporation in the lateral ventricle wall; format: in vivo, C57BL/6J male mice; details: 4.3 and 43 mg/kg/day, mouse
Procedure: (§1) C57BL/6J male mice were housed under controlled temperature and humidity and had free access to water and chow. 40 mice were divided into 5 groups (n=8). Group 1 received chow mixed with 0.025% T0901317 (Sigma-Aldrich) ad libitum for 10 days (dose previously show to be effective for brain activity of the compound). On day 7 and 8 the animals received a single injection of 5-bromodeoxyuridine, 100 mg/kg i.p., respectively and were sacrificed on day 10 by means of cervical dislocation.
Group 2 received identical treatment except that the chow in this case contained 0.0025% T0901317. […] No correlation between weight gain, food intake or BrdU incorporation could be detected. […]
(§2) Brains were cut into 14-μm coronal sections using a cryostat-microtome. […] After 1 hour of washing, the BrdU-antibody complex was detected using 0.05% diaminobenzidine with 0.01% H2O2, and counterstained with Hematoxylin. […]
(§3) For all BrdU labeling experiments, three to six sections per animal were analyzed. BrdU-positive cells were counted along 2×250 micrometer strips of the lateral ventricle wall (including the ependymal cell layer and subventricular zone). […] The numbers of BrdU-positive cells are calculated per area (mm^2). The mean ± SEM were calculated. Differences between means were determined by one-way ANOVA.

cells in the LVW [3] = assay: Intracerebroventricular infusion of TO-901317, BrdU incorporation in the lateral ventricle wall; format: in vivo, male Wistar rats; details: icv infusion 0.6 nmol/animal/day, 14 days, rat; calculated day concentration 0.2 μM
Procedure: 10 week old male Wistar rats maintained on a 12hr light/dark cycle with food and water ad libidum, were infused in the right lateral ventricle with TO-901317 (Sigma-Aldrich), using an Alzet pump (2002), 14 days at a daily dose of 0.6 nmol/animal/day (infused at a rate of 0.5 μl/hr; 50 μM solution). Bromodeoxyuridine (BrdU) (50 mg/ml) was also included in the infusion vehicle (0.9% saline containing 1 mg/ml mouse serum albumin (Sigma)) to enable measurement of proliferation by quantitation of BrdU incorporation in the DNA. Animals were sacrificed at day 14, perfused with PBS and the brains removed and frozen at −70° C. prior to sectioning for immumohistochemical analysis.
as §2, with “cryostat-microtome. The sections were thawed onto pretreated slides and fixed in 4% (wt/vol) paraformaldehyde/PBS for 10 min.” for “cryostat-microtome.”
as §3

[4] = Weight gain and food intake during oral administration; format: in vivo, C57BL/6J male mice; details: chow with 0.025% or 0.0025% compound, mouse
Procedure: as §1
Group 2 received identical treatment except that the chow in this case contained 0.0025% T0901317. Group 3 and 4 received identical treatments as groups 1 and 2, respectively, with the exception that these animals received 5-bromodeoxyuridine injections on day 1 and 2 after the initiation of the experiment and were sacrificed on day 4. Group 5 served as control and received chow without any T0901317 but identical to groups 1-4 received two daily injections of 5-bromodeoxyuridine 100 mg/kg i.p. and was sacrificed two days later. The mean daily intake was 4.25±0.13 (S.E.M.) g chow, and the mean weight of the animals 24.8±0.11 (S.E.M.) g during the cause of the experiment resulting in an average dose of 43 mg/kg/day for groups 1 and 3 (“High”), and an average dose of 4.3 mg/kg/day for groups 2 and 4 (“Low”). […] No correlation between weight gain, food intake or BrdU incorporation could be detected. […]

irritant dermatitis = details: phorbol 12-myristate-13-acetate on ears of CD1 mice; cited from earlier work
phospholipase A2 (PLA2) = details: cited from earlier work; for PLA2 enzymatic activity / PLA2 mRNA: rat smooth muscle cells
[5] = system: rat pheochromocytoma cells; details: cited from earlier work
[6] = system: beta-amyloid induced apoptosis; details: Alzheimer's disease; cited from earlier work

Structure (SMILES) | intracellular ATP levels, and hence cell number (adult mouse NSC proliferation or survival in vitro) [1] | irritant dermatitis (irritant dermatitis) | PLA2 enzymatic activity (phospholipase A2 (PLA2)) | PLA2 mRNA (phospholipase A2 (PLA2)) | neuronal differentiation measured as neurite outgrowth [5] | other results
O=S(=O)(c1ccccc1)N(CC(F)(F)F)c1ccc(C(O)(C(F)(F)F)C(F)(F)F)cc1 [TO-901317] | mediates adult mouse NSC proliferation or survival in vitro |  |  |  |  | concentration-response relationship observed in vitro with cultured mouse NSC ([1]; Example 2, effective concentrations): 3 to 5 µM; incorporation of BrdU of cells in the LVW (cells in the LVW [2]): significantly decreased; also recorded: clearly effective; incorporation of BrdU in the LVW (cells in the LVW [3]): did not significantly change; also recorded: ineffective; weight gain or food intake [4]: No difference between groups
C[C@H](CCCC(C)(C)O)[C@H]1CC[C@H]2[C@@H]3CC=C4C[C@@H](O)CC[C@]4(C)[C@H]3CC[C@]12C [25-hydroxycholesterol] |  | able to reduce irritant dermatitis | increased enzymatic activity | accumulation of PLA2 mRNA |  | 
CC(C)CC[C@@H](O)[C@@H](C)[C@H]1CC[C@H]2[C@@H]3CC=C4C[C@@H](O)CC[C@]4(C)[C@H]3CC[C@]12C [22(R)-hydroxycholesterol] |  | able to reduce irritant dermatitis | increased enzymatic activity | accumulation of PLA2 mRNA | induces neuronal differentiation | PLA2 promoter activity (phospholipase A2 (PLA2); transient transfection, in combination with 9-cis-retinoic acid): synergistically activated; beta-amyloid induced apoptosis [6]: prevention of beta-amyloid induced apoptosis
O=C(O)Cc1cccc(OCCCN(Cc2cccc(C(F)(F)F)c2Cl)CC(c2ccccc2)c2ccccc2)c1 [GW3965] |  | able to reduce irritant dermatitis |  |  |  | 
CCCCCCCCCCCCCCOc1ccc(C(=O)O)o1 [TOFA, 5-tetradecyloxy-2-furancarboxylic acid] |  |  |  |  | induces neuronal differentiation | 
C[C@H](CC[C@@H]1OC1(C)C)[C@H]1CC[C@H]2[C@@H]3CC=C4C[C@@H](O)CC[C@]4(C)[C@H]3CC[C@]12C [5-Cholesten-24(s), 25-epoxy-3b-ol] | mediates adult mouse NSC proliferation or survival in vitro |  |  |  |  | 
